Laboratory results as given in patent US8293732B2, “Antibacterial quinoline derivatives” (Janssen Pharmaceutica N.V., priority 2006, dated 2012).
Converted amounts (≈) assume the structure as drawn.

What was measured:
Type in all cases: cell-based
[1] = system: Staphylococcus aureus (ATCC29213); assay: In-vitro anti-bacterial microtitre plate assay, IC90 determination (STA 1 B29213); details: 90% inhibitory concentration for bacterial growth, 37° C., resazurin fluorescence; for IC90 values STA 1 B29213: 24 hours; for IC90: Staphylococcus aureus, ATCC29213, 24 h
Procedure: (§1) The bacteria used in this study were grown overnight in flasks containing 100 ml Mueller-Hinton Broth (Becton Dickinson—cat. no. 275730) in sterile de-ionized water, with shaking, at 37° C. Stocks (0.5 ml/tube) were stored at −70° C. until use. Bacteria titrations were performed in microtiter plates to detect the TCID50, in which the TCID50 represents the dilution that gives rise to bacterial growth in 50% of inoculated cultures.
(§2) In general, an inoculum level of approximately 100 TCID50 was used for susceptibility testing.
(§3) Flat-bottom, sterile 96-well plastic microtiter plates were filled with 180 μl of sterile deionized water, supplemented with 0.25% BSA. Subsequently, stock solutions (7.8× final test concentration) of compounds were added in 45 μl volumes in column 2. Serial five-fold dilutions (45 μl in 180 μl) were made directly in the microtiter plates from column 2 to reach column 11. Untreated control samples with (column 1) and without (column 12) inoculum were included in each microtiter plate. Depending on the bacteria type, approximately 10 to 60 CFU per well of bacteria inoculum (100 TCID50), in a volume of 100 μl in 2.8× Mueller-Hinton broth medium, was added to the rows A to H, except column 12. The same volume of broth medium without inoculum was added to column 12 in row A to H. The cultures were incubated at 37° C. for 24 hours under a normal atmosphere (incubator with open air valve and continuous ventilation). At the end of incubation, one day after inoculation, the bacterial growth was quantitated fluorometrically. Therefore resazurin (0.6 mg/ml) was added in a volume of 20 μl to all wells 3 hours after inoculation, and the plates were re-incubated overnight. A change in colour from blue to pink indicated the growth of bacteria. The fluorescence was read in a computer-controlled fluorometer (Cytofluor Biosearch) at an excitation wavelength of 530 nm and an emission wavelength of 590 nm. The % growth inhibition achieved by the compounds was calculated according to standard methods.
(§4) STA 29213 means Staphylococcus aureus (ATCC29213); SPN 6305 means Streptococcus pneumoniae (ATCC6305); MSM 607 means M. Smegmatis (ATCC607); ATCC means […].

[2] = system: M. Smegmatis (ATCC607); assay: In-vitro anti-bacterial activity against strain M. Smegmatis ATCC607; details: 90% inhibitory concentration for bacterial growth, 37° C., Alamar Blue fluorescence; for IC90 values MSM 1 ATCC607: 48 hours; for IC90: Mycolicibacterium smegmatis, ATCC607, 48 h, read-out: IC90 values MSM 1 ATCC607
Procedure: Flat-bottom, sterile 96-well plastic microtiter plates were filled with 180 μl of sterile deionized water, supplemented with 0.25% BSA. Subsequently, stock solutions (7.8× final test concentration) of compounds were added in 45 μl volumes to a series of duplicate wells in column 2 so as to allow evaluation of their effects on bacterial growth. Serial five-fold dilutions (45 μl in 180 μl) were made directly in the microtiter plates from column 2 to 11 using a customised robot system (Zymark Corp., Hopkinton, Mass.). Pipette tips were changed after every 3 dilutions to minimize pipetting errors with high hydrophobic compounds. Untreated control samples with (column 1) and without (column 12) inoculum were included in each microtiter plate. Approximately 250 CFU per well of bacteria inoculum, in a volume of 100 μl in 2.8× Mueller-Hinton broth medium, was added to the rows A to H, except column 12. The same volume of broth medium without inoculum was added to column 12 in row A to H. The cultures were incubated at 37° C. for 48 hours in a humidified 5% CO2 atmosphere (incubator with open air valve and continuous ventilation). At the end of incubation, two days after inoculation, the bacterial growth was quantitated fluorometrically. Therefore Alamar Blue (10×) was added to all wells in a volume of 20 μl and plates were incubated for another 2 hours at […]
The fluorescence was read in a computer-controlled fluorometer (Cytofluor, Biosearch) at an excitation wavelength of 530 nm and an emission wavelength of 590 nm (gain 30).
as §4

[3] = system: Streptococcus pneumoniae (ATCC6305); assay: In-vitro anti-bacterial microtitre plate assay, IC90 determination (SPN 1 6305); details: 90% inhibitory concentration for bacterial growth, 37° C., resazurin fluorescence; for IC90 values SPN 1 6305: 24 hours; for IC90: Streptococcus pneumoniae, ATCC6305, 24 h
Procedure: as §1, §2, §3, §4

| Compound | IC90 values STA 1 B29213 [1] [µg/mL] | IC90 values MSM 1 ATCC607 [2] [µg/mL] | IC90 values SPN 1 6305 [3] [µg/mL] | IC90 [1] [µg/mL] | IC90 [2] [µg/mL] | IC90 [3] [µg/mL] |
| --- | --- | --- | --- | --- | --- | --- |
| COc1nc2ccc(Br)cc2cc1C(c1ccccc1)C(O)(CCCCN1CCCCC1)COCc1ccccc1 (single isomer, unassigned) [Compound 25] | 2.5 (≈ 4.05 µM) | 2.0 (≈ 3.24 µM) | 2.0 (≈ 3.24 µM) | – | – | – |
| COc1nc2ccc(Br)cc2cc1C(c1ccccc1)C(O)(CCCCN1CCCCC1)COCc1ccccc1 (single isomer, unassigned) [Compound 26] | – | – | – | 2 (≈ 3.24 µM) | 2 (≈ 3.24 µM) | 2 (≈ 3.24 µM) |
| COc1nc2ccc(Br)cc2cc1C(c1ccccc1)C(O)(CCCCN1CCN(C)CC1)COCc1ccccc1 (single isomer, unassigned) [Compound 27] | 4.5 (≈ 7.11 µM) | 2.0 (≈ 3.16 µM) | 2.2 (≈ 3.48 µM) | – | – | – |
| COc1nc2ccc(Br)cc2cc1C(c1ccc2c(c1)OCO2)C(O)(CCN(C)C)c1ccccc1 (single isomer, unassigned) [Compound 29] | 3.1 (≈ 5.64 µM) | 1.7 (≈ 3.09 µM) | 0.4 (≈ 0.728 µM) | – | – | – |
| COc1nc2ccc(Br)cc2cc1C(c1ccccc1)C(O)(CCCCN(C)C)c1cccc(-c2ccccc2)c1 (single isomer, unassigned) [Compound 31] | – | – | 0.86 (≈ 1.41 µM) | 1.93 (≈ 3.17 µM) | 1.93 (≈ 3.17 µM) | – |
| COc1nc2ccc(Br)cc2cc1C(c1ccccc1)C(O)(CCCCN(C)C)c1cccc(-c2ccccc2)c1 (single isomer, unassigned) [Compound 32] | 1.93 (≈ 3.17 µM) | 0.97 (≈ 1.59 µM) | 1.93 (≈ 3.17 µM) | – | – | – |
| COc1nc2ccc(Br)cc2cc1C(c1ccccc1)C(O)(CCCCN(C)C)c1cccc(-c2ccc(Cl)cc2)c1 (single isomer, unassigned) [Compound 33] | 2.04 (≈ 3.17 µM) | – | 1.82 (≈ 2.83 µM) | – | 2.04 (≈ 3.17 µM) | – |
| COc1nc2ccc(Br)cc2cc1C(c1ccccc1)C(O)(CCCCN(C)C)c1cccc(-c2ccc(Cl)cc2)c1 (single isomer, unassigned) [Compound 34] | 0.91 (≈ 1.41 µM) | 1.29 (≈ 2 µM) | 0.72 (≈ 1.12 µM) | – | – | – |
| COc1ccc(-c2cccc(C(O)(CCCCN(C)C)C(c3ccccc3)c3cc4cc(Br)ccc4nc3OC)c2)cc1 (single isomer, unassigned) [Compound 38] | – | 10.14 (≈ 15.9 µM) | – | 2.02 (≈ 3.16 µM) | – | 2.02 (≈ 3.16 µM) |
| COc1ccc(-c2cccc(C(O)(CCCCN(C)C)C(c3ccccc3)c3cc4cc(Br)ccc4nc3OC)c2)cc1 (single isomer, unassigned) [Compound 39] | 2.02 (≈ 3.16 µM) | 2.02 (≈ 3.16 µM) | 2.02 (≈ 3.16 µM) | – | – | – |
| COc1nc2ccc(Br)cc2cc1C(c1ccccc1)C(O)(CCCCN(C)C)c1cccc(-c2ccc(C)cc2)c1 (single isomer, unassigned) [Compound 40] | – | 7.85 (≈ 12.6 µM) | – | 1.97 (≈ 3.16 µM) | – | 1.97 (≈ 3.16 µM) |
| COc1nc2ccc(Br)cc2cc1C(c1ccccc1)C(O)(CCCCN(C)C)c1cccc(/C=C/c2ccccc2)c1 (single isomer, unassigned) [Compound 41] | – | 0.40 (≈ 0.629 µM) | 2.01 (≈ 3.16 µM) | 2.01 (≈ 3.16 µM) | – | – |
| COc1nc2ccc(Br)cc2cc1C(c1ccccc1)C(O)(CCCCN(C)C)c1cccc(/C=C/c2ccccc2)c1 (single isomer, unassigned) [Compound 55] | 2.01 (≈ 3.16 µM) | 1.792 (≈ 2.82 µM) | 0.898 (≈ 1.41 µM) | – | – | – |
